Data on one compound can be found in US20120190707A1, “SELECTIVE INHIBITORS OF AKT AND METHODS OF USING SAME” (priority 2008, published 2012).

The structures appear in SMILES notation.

The subject of assay [1] is AKT. Briefly: pAKT473 and total AKT by western analysis in 29-1 (PTEN+) cells. It is filed as cell-based, human. To be noted: 29-1 cells. Here is the method:
(§1) FIG. 6 describes the effect of BI-69A11 on phosphorylation and total levels of AKT in UACC 903 (PTEN−) cells. (A) UACC903 and the modified clone 29-1 (PTEN+) cells were exposed to 10 micro.M BI-69A11 and 50 micro.M LY294002 (a PI3K inhibitor) and the levels of pAKT473 and total AKT determined by western analysis. […] (SF=Serum Free). (B) BI-69A11 inhibits PRAS40 phosphorylation. UACC903 melanoma cells or 29-1 cells (PTEN+) were subjected to treatment with IGF-1 (20 ng/mL) and the level of PRAS40 phosphorylation was assessed. […] The cells were collected, lysed and levels of pPRAS40 and total PRAS40 determined by western analysis. (C) AKT association with HSP90 is inhibited by BI-69A11. Human melanoma cells were treated with BI-69A11 (10.micro.M) or DMSO control for 4 h, followed by protein preparation and immunoprecipitation using antibodies to pan-AKT. MG132 treatment, when used, initiated 1 h prior to treatment and lasted up to the preparation of proteins (total of 5 h). The right panel depicts analysis of total lysates.
The term “cell lines”, as used herein, unless otherwise indicated, refer to UACC 903 cells and 29-1 cells. The cells were cultured in DMEM, supplemented with 10% FBS and maintained at 37° C. in 5% CO2. Cells were plated to 75% confluency and grown overnight at 37° C. […]

The test system of assay [2] is PRAS40. As to the kind of experiment: PRAS40 phosphorylation by western analysis in UACC903 cells. The class given is cell-based, human. To be noted: UACC903, 10.micro.M. On the procedure:
as §1
Thus, we set to test the possibility that BI-69A11's ability to inhibit AKT activity may stem from inhibition of AKT protein expression (see data below). We thus assessed whether inhibition of AKT Ser473 phosphorylation coincides with its activity, namely the phosphorylation of known AKT substrates. […]

Consider `O=C(/C=C/c1nc2ccccc2[nH]1)c1c(O)nc2ccc(Cl)cc2c1-c1ccccc1` [Compound 2, (E)-3-(3-(1H-benzo[d]imidazol-2-yl)acryloyl)-6-chloro-4-phenylquinolin-2(1H)-one], for which, in assay [1], the AKT phosphorylation result is on record as “limited to no effect”. The “levels of total AKT” value in assay [1] (10 micro.M, increasing time after treatment) is listed as “reduced levels of total AKT”. For the same compound, in assay [2], the “phosphorylation of PRAS40” value is on record as “markedly inhibited”.
